Where a name gives a salt, the structure may show the parent alone.

One test has as its system mice. Put plainly: Writhing Assay (PBQ-induced writhing, analgesic activity in mice). Type of test: in vivo, mouse (Charles River male albino mice). Particulars: for WRITHING ASSAY Number Out of Ten (number of mice out of ten in which a test compound produced analgesia): 30 mg per kilogram i.g., 30 min before PBQ i.p., writhes <= one-half median of saline control. From the text:
The Writhing Assay is one of the most widely-used experimental procedures for measuring the analgesic activity of different narcotic and nonnarcotic analgesic agents, and involves the continuous, chemically-induced pain of visceral origin to an animal, such as a mouse or rat. [Gyires et al., Arch. int. Pharmacodyn, 267, 131-140 (1984); […] al., Fed. Proc., 15, 494 (1956); Koster et al., Fed. Proc., 18, 412 (1959); and Witken et al., J. Pharmacol. exp. Ther., 133, 400-408 (1961).] Chemicals which may be used to induce this pain include phenylbenzoquinone (PBQ) and acetic acid. As a result of the chemical irritation to the animal, a characteristic stretching and writhing of the animal (dorsiflexion of the animal's back, extension of its hindlimbs and the strong contraction of its abdominal musculature) will generally occur. […] Drugs which reduce the number of writhes of the animal appear to restore the normal nociceptive threshold of the animal. […] Charles River male albino mice, weighing 20 to 30 grams, were used in this assay. Thirty minutes after intragastric administration to ten mice of 30 mg per kilogram of body weight of a compound of the present invention ("test compound"), […] of body weight of a 0.025% w/v solution of PBQ was injected intraperitoneally into each mouse. Ten mice which were given saline in place of a test compound of the invention were used as a control group. Five minutes later, each mouse was individually placed into a glass beaker for observation, and the number of writhes occurring during the following ten-minute period was counted. A test compound was considered to have produced analgesia in a mouse if, in accordance with the conditions set forth above, and under the test criteria employed for this assay, after the administration of 30 mg per kilogram of body weight of a compound of the present invention to the mouse, the number of writhes elicited by a mouse injected with PBQ was equal to, or less than, one-half the median number of writhes recorded for the saline-treated control group of mice that day, as described by Taber in "Predictive Value of Analgesic Assays in Mice and Rats," Advances in Biochemical Psychopharmacology, 8, 191 (1974). The results for the particular compounds of the present invention analyzed in this assay, and discussed in the examples identified below which correspond thereto, are presented in Table 1 hereinbelow as fractions under the heading "WRITHING ASSAY." The fractions indicate the number of mice out of ten in which a test compound produced analgesia. The standard initial screening dose of a test compound employed in this assay was […]. If this initial screening dose of the test compound produced analgesia in seven out of ten mice, then the effect of additional doses of the test compound on the writhing response was evaluated, and then the ED50 dose was generally calculated. (The slopes of the dose-response curves for all test compounds analyzed were compared as described by Tallarida and Murray, Manual of Pharmacologic Calculations, Page 11 (Springer Verlag, New York, 1981)). All ED50 doses calculated are also presented in Table 1 hereinbelow under the heading "WRITHING ASSAY," but as whole numbers.

Test [1] concerns prostaglandin E2-induced contractions of segments of guinea pig ileum. Put plainly: Prostaglandin (PGE) Antagonism Assay (inhibition of prostaglandin E2-induced contractions of guinea pig ileum segments). Particulars: ratio of prostaglandin E2 EC50 with/without test compound; initial concentration 3 micromolar; 30 min incubation; 37° C.; active if dose ratio >= 2. On the procedure: In order to determine the effectiveness of several of the compounds of the present invention ("test compounds") as prostaglandin E2 antagonists,a prostaglandin antagonism assay was conducted, as described below, to determine the ability of these compounds to inhibit prostaglandin E2 -induced contractions of segments of guinea pig ileum. […] Male albino guinea pigs weighing 200 to 500 grams were sacrificed by cervical dislocation. The ilea were then quickly removed from the guinea pigs and placed in a modified Tyrode solution, a solution which is known to those skilled in the art, containing one-half of the usual amount of magnesium ions. Segments of ileum about 2 cm long were then cut and mounted in a 10 mL tissue bath containing the modified Tyrode solution. The solution was maintained at 37° C. and aerated with a gaseous mixture of 95% oxygen and 5% carbon dioxide. Data for a control prostaglandin E2 dose response curve plotting concentration of prostaglandin E2 versus the intensity of contractions, detected isotonically, was then obtained by experimentally adjusting the dose of the prostaglandin E2 being injected into the tissue bath, in a manner known by those of skill in the art. Solutions or suspensions containing an initial concentration (3 micromolar) of a test compound in modified Tyrode solution ("test solutions/suspensions") were then separately substituted for the control bath solution. Each test solution/suspension was then kept in constant contact with the ileum tissue, except for brief periods to drain the bath in preparation for rinsing with fresh test solution/suspension. A second prostaglandin E2 dose response curve was then generated for prostaglandin E2 in the presence of a test compound. A control dose response curve is produced in isolated segments of guinea pig ileum mounted in an automated apparatus with six concentrations of prostaglandin E2. A solution or suspension of test compound is substituted for the control bathing solution and is incubated for thirty minutes. An additional prostaglandin E2 dose response curve is then performed in the presence of the test compound. A dose ratio is calculated from the EC50 values obtained from duplicate replications on each concentration of the test compound. […] A dose ratio of EC50 doses was calculated from the results of each test in a manner known by those of skill in the art, and described above. A test compound was determined to be "active" if the initial concentration used yielded at least a two-fold shift (dose ratio greater than or equal to 2) in the dose response curve for prostaglandin E2. The compounds of the present invention which were tested in this assay, and for which results are presented in Table 1, correspond to the particular examples specified in Table 1.

Turning to `CCN1CCN(c2c(N3Cc4ccccc4Oc4ccc(Cl)cc43)c(=O)c2=O)CC1` [Example 2, 3-(8-Chlorodibenz[b,f][1,4]oxazepin-10(! ! H)-yl)-4-(4-ethyl-1-piperazinyl)-3-cyclobutene-1,2-dione, monohydrochloride], the “WRITHING ASSAY Number Out of Ten (number of mice out of ten in which a test compound produced analgesia)” value (“WRITHING ASSAY Number Out of Ten” below) with mice was 6/10. Moreover, the “PGE ANTAGONISM IN GUINEA PIG ILEUM Dose Ratio” value in test [1] is reported as 5.0 ± 2.6.
Turning to `CCOC(=O)C1CN(c2c(N3Cc4ccccc4Oc4ccc(Cl)cc43)c(=O)c2=O)CCN1c1ccccc1` (stereo not drawn) [Example 4, Ethyl 4-[2-(8-chlorodibenz[b,f][1,4]oxazepin-10(11H)-yl)-3,4-dioxo-1-cyclobuten-1-yl]-1-phenyl-2-piperazinecarboxylate], the “WRITHING ASSAY Number Out of Ten” value in the test on mice was 4/10.
For the compound `CN(C)CCNc1c(N2Cc3ccccc3Oc3ccc(Cl)cc32)c(=O)c1=O.Cl` [Example 6, 3-(8-Chlorodibenz[b,f][1,4]oxazepin-10(11H)-yl)-4-[[2-(dimethylamino)ethyl]amino]-3-cyclobutene-1,2-dione, hydrochloride], in the test on mice, the “WRITHING ASSAY Number Out of Ten” value is 6/10. Moreover, the “PGE ANTAGONISM IN GUINEA PIG ILEUM Dose Ratio” value in test [1] worked out at 6.8 ± 4.5.
One may read the ED50 as the midpoint of the dose-response relation. For `Cl.O=c1c(NCc2ccncc2)c(N2Cc3ccccc3Oc3ccc(Cl)cc32)c1=O` [Example 7, 3-(8-Chlorodibenz[b,f][1,4]oxazepin-10(11H)-yl)-4-[(4-pyridinylmethyl)amino]-3-cyclobutene-1,2-dione, hydrochloride], the ED50 in the test with mice (Mus musculus, po, intragastric, PBQ i.p., dose producing analgesia in 50% of the animals, read-out: WRITHING ASSAY ED50 Dose I.G.) is 9.7 mg/kg. The “PGE ANTAGONISM IN GUINEA PIG ILEUM Dose Ratio” value in test [1] was 22 ± 5.
For the compound `O=c1c(N2Cc3ccccc3Oc3ccc(Cl)cc32)c(N2Cc3ccccc3Oc3ccc(Cl)cc32)c1=O` [Example 8, 3,4-bis[8-chlorodibenz[b,f][1,4]oxazepin-10(11H) -yl]-3-cyclobutene-1,2-dione], the “WRITHING ASSAY Number Out of Ten” value with mice is 6/10. Besides, the “PGE ANTAGONISM IN GUINEA PIG ILEUM Dose Ratio” value in test [1] is 1.9 ± 0.9.

The values above are taken from patent US5354746A, “Squaric acid derivatives of substituted dibenzoxazepine compounds, pharmaceutical compositions and methods of use” (G. D. Searle & Co., priority 1993, dated 1994).
